Measured values as given in patent publication US10179132B2, “Composition for inducing differentiation of multipotent neural stem cells into dopaminergic neurons and method for inducing differentiation of multipotent neural stem cells into dopaminergic neurons by using the same” (INDUSTRY-ACADEMIC COOPERATION FOUNDATION, YONSEI UNIVERSITY, priority 2015, dated 2019).
Structures can show the parent of a compound that is named as a salt.

Legend:
mouse neural stem cells [1] = test: Morphological analysis of treated neural stem cells; format: cell-based; conditions: AS703026, AZD8330 10 μM; PD318088, Trametinib, Refametinib 1 μM; 4 days; FIG. 8A
Description: (§1) Mouse neural stem cells were cultured in accordance with the procedure of Example 1. […] The cells were cultured for 4 days.
(§2) Neurospheres were treated with TrypLE and separated into single cells, which were uniformly seeded into a culture dish coated with 15 μg/ml poly-L-ornithine and 10 μg/ml fibronectin. Following culture, the morphology of the cells was observed.
(§3) In this example, it was confirmed whether dopaminergic neurons were differentiated from neural stem cells.

mouse neural stem cells [2] = test: Real-time RT-PCR of neuronal / dopaminergic markers in cultured neural stem cells; format: cell-based; conditions: 4 days; for Tuj1 (marker of neurons) expression / tyrosine hydroxylase (TH) expression: AS703026, AZD8330 10 μM, PD318088, Trametinib, Refametinib 1 μM; for Tuj1 (marker of neurons) expression: FIG. 8B; for tyrosine hydroxylase (TH) expression: FIG. 8C
Description: Neural stem cells were isolated from the brain of a day 14.5 mouse embryo, treated with 10 ng/ml human basic fibroblast growth factor (bFGF) (Peprotech, Princeton, N.J.) and 20 ng/ml human epidermal growth factor (EGF) (Peprotech) in a N2 culture medium, and cultured in suspension in a 25 cm^2 flask (Nunc, Pittsburgh, Pa.) for 4 days.
Neurospheres were treated with TrypLE and then separated into single cells, which were uniformly seeded into a culture dish coated with 15 μg/ml poly-L-ornithine and 10 μg/ml fibronectin. Following culture, the morphology of the cells was observed.
The N2 culture medium was Dulbecco's modified Eagle's medium (DMEM)/F12 (1:1) supplemented with 100 μM putrescine, 30 nM selenite, 20 nM progesterone, 1.55 mg/ml d-(+)-glucose, 25 μg/ml insulin, […] apo-transferrin, 0.5 mM alanyl glutamine, 100 IU/ml penicillin, and 100 μg/ml streptomycin.
as §1, §2
To this end, real-time (RT) PCR analysis was performed on neuron-specific markers. On day 4 after in vitro differentiation, mRNA expression was identified. The numbers in the graph indicate average values of mRNA expression levels relative to the respective controls from real-time PCR analyses in triplicate.
as §3

mouse neural stem cells [3] = test: Immunoblot analysis of marker expression in cultured neural stem cells; format: cell-based
Description: Mouse neural stem cells were cultured in accordance with the procedure of Example 1. […] The cells were cultured for 4 days. Neurospheres were treated with TrypLE and separated into single cells, which were uniformly seeded into a culture dish coated with 15 μg/ml poly-L-ornithine and 10 μg/ml fibronectin. Following culture, the morphology of the cells was observed. In this example, it was confirmed whether dopaminergic neurons were differentiated from neural stem cells. To this end, immunoblot analysis and immunocytochemical analysis were performed on the neural progenitor cells (undifferentiated; UD) cultured in Example 1, the differentiated cells (D) cultured in Comparative Example 1, and the AS703026-treated cells (UD+AS) cultured in Example 2, and the results were compared. The immunoblot analysis was performed by the following procedure. First, the cells were washed with ice-cold phosphate-buffered saline (PBS) and lysed with 1×RIPA buffer (10 mM HEPES, 1.5 mM MgCl2, 10 mM KCl, 0.01 M DTT, protease inhibitors, pH 7.9). The cell homogenate was heated at 100° C. for 10 min and subjected to 10-12% SDS-polyacrylamide gel electrophoresis. Proteins were electrophoretically transferred to a nitrocellulose membrane and blocked with 5% non-fat dry milk in TBS-Tween 20 (0.1%, v/v) for 1 h. Western blotting was performed using anti-Tuj1, anti-GFAP or anti-MBP antibodies and successively horseradish peroxidase-conjugated anti-rabbit or anti-mouse IgG secondary antibodies. The protein bands were visualized using enhanced chemiluminescence (ECL, lab made) and detected with LAS-3000 (FUJIFILM, Tokyo, Japan). FIGS. 4 and 5 show the results of immunoblot analysis (FIG. 4) and immunocytochemical analysis (FIG. 5) for the neural progenitor cells (undifferentiated; UD) cultured in Example 1, the differentiated cells (D) cultured in Comparative Example 1, and the AS703026-treated cells (UD+AS) cultured in Example 2 to determine whether dopaminergic neurons were differentiated from the neural stem cells. […] The AS703026-treated cells were cultured in the same manner as in Example 2. […]

mouse neural stem cells [4] = test: Apoptosis analysis by annexin-V/PI flow cytometry; format: cell-based; conditions: 10 μM, 4 days
Description: Finally, the number of the cells was counted using a FACS Calibur flow cytometer (BD Biosciences, USA). Apoptosis was analyzed as follows. The cells were washed twice with cold PBS, treated with propidium iodide (PI) and Annexin V FITC at room temperature, and cultured for 15 min. PI and FITC fluorescence intensities were measured using a FACS flow cytometer. Data were analyzed with the Cell-quest FACS analysis software (BD Biosciences). The results are shown in FIGS. 2A, 2B, 2C, 3A, 3B and 3C. FIGS. 2A, 2B, 2C, 3A, 3B and 3C show the results of flow cytometry for the neural progenitor cells (undifferentiated; UD) cultured in Example 1, the differentiated cells (D) cultured in Comparative Example 1, and the AS703026-treated cells (UD+AS) cultured in Example 2 to identify the cycles of the cells. Specifically, FIGS. 2A, 2B and 2C are histograms showing the results of flow cytometry for the cells stained with PI. FIGS. 3A, 3B and 3C are scatter plot diagrams showing the results of flow cytometry for the cells stains with annexin-V/PI.

[5] = tested on: ventral midbrains of embryos of pregnant mouse models; test: Intraperitoneal administration to pregnant mice; marker expression in embryonic ventral midbrains (immunocytochemistry, RT-PCR); format: in vivo
Description: After the same amount of distilled water (D.W) as control was administered intraperitoneally to pregnant mouse models at 10.5 days of gestation daily for 4 consecutive days, the expression levels of the markers in the ventral midbrains, where dopaminergic neurons were most abundantly distributed, were analyzed. The control is marked as “Vehicle” in FIGS. 6 and 7.
Proteins and mRNAs isolated from the brains of the sacrificed embryos were analyzed by RT-PCR.

mouse neural stem cells [6] = test: Immunocytochemical analysis of marker expression in cultured neural stem cells; format: cell-based; conditions: 10 μM, 4 days
Description: Mouse neural stem cells were cultured in accordance with the procedure of Example 1. […] The cells were cultured for 4 days. Neurospheres were treated with TrypLE and separated into single cells, which were uniformly seeded into a culture dish coated with 15 μg/ml poly-L-ornithine and 10 μg/ml fibronectin. Following culture, the morphology of the cells was observed. […] In this example, it was confirmed whether dopaminergic neurons were differentiated from neural stem cells. To this end, immunoblot analysis and immunocytochemical analysis were performed on the neural progenitor cells (undifferentiated; UD) cultured in Example 1, the differentiated cells (D) cultured in Comparative Example 1, and the AS703026-treated cells (UD+AS) cultured in Example 2, and the results were compared. The immunocytochemical analysis was performed by the following procedure. First, the cells were fixed in 4% para-formaldehyde at room temperature for 10 min, washed with PBS, and incubated with 0.2% Triton X-100 at room temperature for 15 min. After blocking with 10% BSA at room temperature for 1 h, the cells were incubated with anti-Tuj1 (Covance, Princeton, N.J.), anti-GFAP (Biogenex, San Ramon, Calif.), anti-MBP (Abcam), anti-Ki67 (Abcam), anti-p-ERK1/2 or anti-TH antibodies at 4° C. overnight, and cultured using Alexa Fluor 488- or Alexa Fluor 555-conjugated IgG secondary antibodies (Molecular Probes, Eugene, Oreg.) at room temperature for 1 h. Subsequently, the cells were cultured with 1 μg/ml 4′,6-diamidino-2-phenylindole (DAPI) for 5 min, the inlet was sealed with a coverslip, and the cells were observed using a confocal microscope. FIGS. 4 and 5 show the results of immunoblot analysis (FIG. 4) and immunocytochemical analysis (FIG. 5) for the neural progenitor cells (undifferentiated; UD) cultured in Example 1, the differentiated cells (D) cultured in Comparative Example 1, and the AS703026-treated cells (UD+AS) cultured in Example 2 to determine whether dopaminergic neurons were differentiated from the neural stem cells.

mouse neural stem cells [7] = test: Cell cycle analysis by PI staining and flow cytometry; format: cell-based; conditions: 10 μM, 4 days; PI staining; FIG. 2C
Description: Specifically, the cell cycles were analyzed by the following procedure. First, the cells (Example 1, Example 2, and Comparative Example 1) were washed twice with cold PBS and fixed in cold 70% ethanol for 30 min. The ethanol was removed by centrifugation, the cells were suspended, and the number of the cells was adjusted to 10^6/ml. The cells were washed twice with PBS, treated with 50 μg/ml propidium iodide (PI) at room temperature in the presence of RNase, and cultured for 30 min. Finally, the number of the cells was counted using a FACS Calibur flow cytometer (BD Biosciences, USA). Apoptosis was analyzed as follows. The cells were washed twice with cold PBS, treated with propidium iodide (PI) and Annexin V FITC at room temperature, and cultured for 15 min. PI and FITC fluorescence intensities were measured using a FACS flow cytometer. Data were analyzed with the Cell-quest FACS analysis software (BD Biosciences). The results are shown in FIGS. 2A, 2B, 2C, 3A, 3B and 3C. FIGS. 2A, 2B, 2C, 3A, 3B and 3C show the results of flow cytometry for the neural progenitor cells (undifferentiated; UD) cultured in Example 1, the differentiated cells (D) cultured in Comparative Example 1, and the AS703026-treated cells (UD+AS) cultured in Example 2 to identify the cycles of the cells. […]

neural stem cells = test: Differentiation of neural stem cells into dopaminergic neurons (general statements, no separate method); format: cell-based, mouse; conditions: MEK 1 inhibitor, no MEK 2 inhibition
[8] = i.p. to pregnant mice from 10.5 days of gestation, daily for 4 days, vs distilled water

Compound: O=C(NOCC(O)CO)c1cc(Br)c(F)c(F)c1Nc1ccc(I)cc1F (centres unmarked) [PD318088]
- morphology of treated cells (mouse neural stem cells [1]): neuron-like morphological changes
- Tuj1 (marker of neurons) expression (mouse neural stem cells [2]): expressed only
- tyrosine hydroxylase (TH) expression (mouse neural stem cells [2]): expressed only

Compound: COc1cc(F)c(F)c(Nc2ccc(I)cc2F)c1NS(=O)(=O)C1(C[C@H](O)CO)CC1 [Refametinib]
- morphology of treated cells (mouse neural stem cells [1]): neuron-like morphological changes
- Tuj1 (marker of neurons) expression (mouse neural stem cells [2]): expressed only
- tyrosine hydroxylase (TH) expression (mouse neural stem cells [2]): expressed only

Compound: O=C(NC[C@H](O)CO)c1ccncc1Nc1ccc(I)cc1F [AS703026, N-[(2S)-2,3-dihydroxypropyl]-3-[(2-fluoro-4-iodophenyl)amino]isonicotinamide hydrochloride]
- expression pattern of TH compared with cells of Example 2 (10 μM) (mouse neural stem cells [3]; 1 μM (UD+AS, 1)): similar
- expression pattern of TH compared with cells of Example 2 (10 μM) (mouse neural stem cells [3]; 5 μM (UD+AS, 5)): similar
- tyrosine hydroxylase (TH) expression, immunoblot (mouse neural stem cells [3]; 10 μM, 4 days, vs UD and D cells, FIG. 4): expressed only
- apoptosis (mouse neural stem cells [4]): does not induce apoptosis
- morphology of treated cells (mouse neural stem cells [1]): neuron-like morphological changes
- number of dopaminergic neurons formed in embryo brains vs non-administered animals ([5]; i.p. to pregnant mice at 10.5 days of gestation): approximately twice as large
- expression level of TH in embryo brains vs control [5, 8]: significantly higher
- expression level of Tuj1 in embryo brains vs control [5, 8]: significantly higher
- immune response to GFAP in embryo brains ([5]; i.p. to pregnant mice, 4 days): No immune responses
- immune response to MBP in embryo brains ([5]; i.p. to pregnant mice, 4 days): No immune responses
- differentiation into dopaminergic neurons in embryos (RT-PCR) ([5]; i.p. to pregnant mice, 4 days, FIG. 7): increased differentiation
- immune response to GFAP (mouse neural stem cells [6]): No immune responses
- immune response to MBP (mouse neural stem cells [6]): No immune responses
- number of clusters of dopaminergic neurons from which neurites extended outward (mouse neural stem cells [6]; FIG. 1B): increase
- number of dopaminergic neurons differentiated (Tuj1 immunocytochemistry) (mouse neural stem cells [6]; FIG. 1B): considerable increase
- tyrosine hydroxylase (TH) expression, immunocytochemistry (mouse neural stem cells [6]; vs UD and D cells, FIG. 5): expressed only
- cell cycle (mouse neural stem cells [7]): arrested in the G0/G1 phase
- expression level of GFAP (astrocyte differentiation factor) (mouse neural stem cells [2]; 10 μM, compared with Tuj1): lower than that of Tuj1
- expression level of MBP (oligodendrocyte differentiation factor) (mouse neural stem cells [2]; 10 μM, compared with Tuj1): lower than that of Tuj1
- expression level of Tuj1 (neuronal differentiation factor), times higher than UD and D cells (mouse neural stem cells [2]; 10 μM, vs undifferentiated (UD) and differentiated (D) cells, FIG. 1A): at least 10 times
- Tuj1 (marker of neurons) expression (mouse neural stem cells [2]): expressed only
- tyrosine hydroxylase (TH) expression (mouse neural stem cells [2]): expressed only

Compound: Cc1cc(C(=O)NOCCO)c(Nc2ccc(I)cc2F)n(C)c1=O [AZD8330]
- morphology of treated cells (mouse neural stem cells [1]): neuron-like morphological changes
- Tuj1 (marker of neurons) expression (mouse neural stem cells [2]): expressed only
- tyrosine hydroxylase (TH) expression (mouse neural stem cells [2]): expressed only

Compound: COc1cccc(-c2cc(=O)c3ccccc3o2)c1N [PD98059]
- induction of differentiation of neural stem cells into dopaminergic neurons (neural stem cells): does not induce substantial differentiation
